Data from patent publication US9475808B2, “Inhibitor compounds of phosphodiesterase type 10A” (AbbVie Deutschland GmbH & Co. KG, priority 2013, dated 2016).

Assays:
PDE10A = PDE10A (UniProt Q9Y233); experiment: Measurement of PDE activity (HTRF cAMP assay, recombinant enzyme); type: biochemical; settings: 20 nM cyclic nucleotide substrate, 60 minutes at 29 C
Description: The recombinant PDE proteins are used in in vitro enzymatic reaction for measurement of PDE activity. These recombinant proteins, including PDE10A (human, rat and mouse PDE10) and isoforms of PDEs 1, 3, 4, and 5, were purchased from commercial vendor BPS Bioscience. The enzymatic activity of PDEs was determined by cAMP measurement kit from CisBio (IBA) using HTRF technology.
The PDE enzymatic reaction was carried out in assay buffer (20 mM Tris-HCl pH7.5, 10 mM MgCl2, 0.1% bovine serum albumin) containing enzyme and substrate. The PDE enzymes concentration ranged from 10 pM-250 pM, depending on each enzyme's specific activity. The substrate cyclic nucleotide (cAMP or cGMP) concentration used in the assay was 20 nM for PDE10, and 100 nM for other PDEs. The inhibitory effect of compound was determined by incubating various concentration of inhibitor in the enzymatic assay. Typically, compound was serial diluted in DMSO then further diluted in assay buffer. Next, the compound at varying concentration was mixed with PDE enzyme. The reaction was initiated by addition of cyclic nucleotide substrate, and incubated for 60 minutes at 29 C. The reaction was stopped by addition of lysis buffer from assay kit. The cAMP-d2 and anti-cAMP cryptate in the lysis buffer detected the level of cAMP left from the PDE hydrolysis reaction. The PDE activity is reversely correlated with the amount of cAMP left in the reaction and can be converted to the percent activity of an uninhibited control (100%). Thus, IC50 value of inhibitor can be obtained by plotting inhibitor concentration against PDE activity at that concentration.

[1] = Determination of the microsomal half-life / microsomal clearance, human liver microsomes; settings: 0.5 μM test substance, 0.25 mg microsomal protein/ml, pH 7.4, 37° C., NADPH
Description: (§1) The test substances were incubated in a concentration of 0.5 μM as follows:
(§2) 0.5 μM test substance are preincubated together with liver microsomes from different species (from rat, human or other species) (0.25 mg of microsomal protein/ml) in 0.05 M potassium phosphate buffer of pH 7.4 in microtiter plates at 37° C. for 5 min. The reaction is started by adding NADPH (1 mg/mL). After 0, 5, 10, 15, 20 and 30 min, 50 μl aliquots are removed, and the reaction is immediately stopped and cooled with the same volume of acetonitrile. The samples are frozen until analyzed. The remaining concentration of undegraded test substance is determined by MSMS. The half-life (T½) is determined from the gradient of the signal of test substance/unit time plot, it being possible to calculate the half-life of the test substance, assuming first order kinetics, from the decrease in the concentration of the compound with time. The microsomal clearance (mCl) is calculated from mCl=ln 2/T½/(content of microsomal protein in mg/ml)×1000 [ml/min/mg]

[2] = Determination of the microsomal half-life / microsomal clearance, rat liver microsomes; settings: 0.5 μM test substance, 0.25 mg microsomal protein/ml, pH 7.4, 37° C., NADPH
Description: as §1, §2

Compound | IC50 (PDE10A) [µM] | Human mCl [1] | Rat mCl [2]
2-(2-Imidazo[1,2-a]pyridin-2-yl-ethyl)-5-methyl-7-morpholin-4-yl-3,5-dihydro-2H-pyrrolo[3,4-c]pyridine-1,6-dione [Example 23] | > 0.5 | – | –
5-Methyl-7-morpholin-4-yl-2-(2-[1,2,4]triazolo[1,5-a]pyridin-2-yl-ethyl)-5H-pyrrolo[3,4-c]pyridine-1,3,6-trione [Example 5] | > 0.5 | – | –
Cn1cc2c(c(N3CCOCC3)c1=O)C(=O)N(CCc1ccc3ccccc3n1)C2=O [Example 1, 5-Methyl-7-morpholin-4-yl-2-(2-quinolin-2-yl-ethyl)-5H-pyrrolo[3,4-c]pyridine-1,3,6-trione] | < 0.1 | ++ (++: <100 μl min^−1 mg^−1) | ++ (++: <100 μl min^−1 mg^−1)
Cn1cc2c(c(N3CCOCC3)c1=O)CN(CCc1ccc3ccccc3n1)C2=O [Example 6, 5-Methyl-7-morpholin-4-yl-2-(2-quinolin-2-yl-ethyl)-1,2-dihydro-5H-pyrrolo[3,4-c]pyridine-3,6-dione] | > 0.5 | ++ (++: <100 μl min^−1 mg^−1) | ++ (++: <100 μl min^−1 mg^−1)
CN1CCN(c2c3c(cn(C)c2=O)C(=O)N(CCc2ccc4ccccc4n2)C3)CC1 [Example 7, 5-Methyl-7-(4-methyl-piperazin-1-yl)-2-(2-quinolin-2-yl-ethyl)-1,2-dihydro-5H-pyrrolo[3,4-c]pyridine-3,6-dione] | > 0.5 | ++ (++: <100 μl min^−1 mg^−1) | +++ (+++ <10 μl min^−1 mg^−1)
Cn1cc2c(c(-c3ccncc3)c1=O)CN(CCc1ccc3ccccc3n1)C2=O [Example 8, 5-Methyl-7-pyridin-4-yl-2-(2-quinolin-2-yl-ethyl)-1,2-dihydro-5H-pyrrolo[3,4-c]pyridine-3,6-dione] | > 0.5 | – | –
Cn1cc2c(c(N3CCOCC3)c1=O)C(=O)N(CCc1ccc3ccccc3n1)C2 [Example 9, 5-Methyl-7-morpholin-4-yl-2-(2-quinolin-2-yl-ethyl)-3,5-dihydro-2H-pyrrolo[3,4-c]pyridine-1,6-dione] | < 0.1 | ++ (++: <100 μl min^−1 mg^−1) | ++ (++: <100 μl min^−1 mg^−1)
CN1CCN(c2c3c(cn(C)c2=O)CN(CCc2ccc4ccccc4n2)C3=O)CC1 [Example 10, 5-Methyl-7-(4-methyl-piperazin-1-yl)-2-(2-quinolin-2-yl-ethyl)-3,5-dihydro-2H-pyrrolo[3,4-c]pyridine-1,6-dione] | – | +++ (+++ <10 μl min^−1 mg^−1) | +++ (+++ <10 μl min^−1 mg^−1)
Cn1cc2c(c(-c3ccncc3)c1=O)C(=O)N(CCc1ccc3ccccc3n1)C2 [Example 11, 5-Methyl-7-pyridin-4-yl-2-(2-quinolin-2-yl-ethyl)-3,5-dihydro-2H-pyrrolo[3,4-c]pyridine-1,6-dione] | 0.1 to 0.2 | – | –
Cn1cc2c(c(N3CCS(=O)(=O)CC3)c1=O)C(=O)N(CCc1ccc3ccccc3n1)C2 [Example 12, 5-Methyl-7-(1,1-dioxo-thiomorpholin-4-yl)-2-(2-quinolin-2-yl-ethyl)-3,5-dihydro-2H-pyrrolo[3,4-c]pyridine-1,6-dione] | 0.1 to 0.2 | ++ (++: <100 μl min^−1 mg^−1) | +++ (+++ <10 μl min^−1 mg^−1)
Cn1nccc1-c1c2c(cn(C)c1=O)CN(CCc1ccc3ccccc3n1)C2=O [Example 30, 5-Methyl-7-(2-methyl-2H-pyrazol-3-yl)-2-(2-quinolin-2-yl-ethyl)-3,5-dihydro-2H-pyrrolo[3,4-c]pyridine-1,6-dione] | > 0.5 | – | –
Cn1cc2c(c(N3CCOCC3)c1=O)C(=O)N(CCc1ccc3ccccc3n1)C2(F)F [Example 35, 3,3-Difluoro-5-methyl-7-morpholin-4-yl-2-(2-quinolin-2-yl-ethyl)-3,5-dihydro-2H-pyrrolo[3,4-c]pyridine-1,6-dione] | < 0.1 | – | –
